Entries after “also recorded” stand apart in the source; their conditions may differ.

One assay deals with T1, IDO1 (Homo sapiens, UniProt P14902).
T1 construct: a human cervical cancer cell line HeLa that endogenously expresses IDO1 upon IFN-γ treatment; endogenous in cells; host or cells: HeLa cells treated with human IFN-γ
The assay is described as follows: HeLa cell-based IDO1/kynurenine assay. On the procedure:
(§1) The main bioassays performed in the study, including HeLa cell-based IDO1/kynurenine assay, Western blot analysis, T cell proliferation and Treg cell differentiation experiments, were carried out as described previously.
It is well known that IDO1 is broadly expressed in human cancers and is induced by pro-inflammatory cytokines, such as interferon gamma (IFN-γ) and tumour necrosis factor alpha (TNF-α)[41]. Here we utilised a human cervical cancer cell line HeLa that endogenously expresses IDO1 upon IFN-γ treatment to evaluate the IDO1 inhibitory activity of the synthesised compounds by measuring kynurenine secreted into the media. […] Thus, we also employed this cellular assay to detect false positive IDO1 inhibitors and cytotoxic compounds by measuring HeLa cell viability. Clinical candidate navoximod was used as an assay control.

The subject of a further assay is IDO1 protein expression. Description: Western blot of IDO1 protein expression in IFN-γ-treated HeLa cells. Format: cell-based, human. On the procedure:
as §1
To exclude the possibility that these secondary sulphonamides inhibit IDO1 activity by down-regulating IDO1 expression, we utilised Western blot to measure the expression of IDO1 protein in HeLa cells treated with different compounds.
Figure 3. […] (B) The greyscale scanning statistical results of A. (C) HeLa cells were incubated with compound 5d (3, 10, 30 μM) for 24 h. (D) The greyscale scanning statistical results of C. (E) HeLa cells were incubated with compound 5d (3, 10, 30 μM) for 48 h. (F) The greyscale scanning statistical results of E. Data are presented as means ± SEM (n = 3).
(In western blotting, separated proteins are transferred to a membrane and probed.)

Assay [1] has as its system naïve CD4+ T cells co-cultured with B16F1 melanoma cells. The assay is described as follows: T cell proliferation in B16F1-T cell co-culture (MTT). Format: cell-based, mouse. To be noted: 18 μM. How it is done:
as §1
T lymphocytes are exceedingly sensitive to low tryptophan levels. Overactivation of the kynurenine pathway by high IDO1 expression leads to local tryptophan depletion, which can suppress T cell proliferation by activating the GCN2 kinase pathway and eventually result in T cell anergy. Here, to determine whether secondary sulphonamides could rescue IDO1-mediated blockade of T cell proliferation, we used a co-culture of IDO1-expressing B16F1 melanoma cells with naïve CD4^+ T cells to mimic the tumour microenvironment. Given that melanoma is a highly immunogenic tumour and IDO1 constitutively expresses in melanoma cells, B16F1 murine melanoma cell lines that express IDO1 were then used to co-culture with T cells. Naïve CD4^+ T cells were isolated from spleens of C57BL/6 mice.
Figure 4. Compounds 5d and 8 g could promote the proliferation of T cells. Based on the B16F1-T cell co-culture system, use MTT assay to test T cells proliferation. The Navoximod and compounds were added to the system at the concentration of 1.5 and 18 μM. Data represent mean ± SEM (n = 3).

Assay [2] deals with naïve CD4+ T cells co-cultured with B16F1 cells. The assay is described as follows: FoxP3+ Treg cell differentiation in B16F1-T cell co-culture (flow cytometry). Format: cell-based, mouse. To be noted: 18 μM. On the procedure: as §1
Besides causing local tryptophan depletion, high IDO1 expression can also accumulate metabolites of kynurenine pathway. The elevated metabolites can not only induce effector T cell death directly through their cytotoxicity, but also promote the differentiation of naïve CD4^+ T cells into CD4^+ FoxP3^+ Treg cells by activating the AHR pathway. As a highly immunosuppressive subset of CD4^+ T cells, FoxP3^+ Treg cells are critical to the maintenance of immune homeostasis and are involved in tumour immune escape, thereby contributing to tumour development and progression. Therefore, we also utilised co-culture of B16F1 cells with naïve CD4^+ T cells to test whether the synthesised compounds could suppress IDO1 mediated Treg cell differentiation.
Figure 5. Compounds 5d and 8 g inhibited Treg cell differentiation in the cell co-culture system. (A) After co-cultured with B16F1 cells, T cells were collected. Surface staining was performed with CD4^+ FTTC and CD25^+ PE for 30 min at 4 °C. The cells were fixed and permeabilized with fixation buffer and permeabilization wash buffer. The intracellular staining was performed with FoxP3^+ APC for 20 min. The cells were then analysed by flow cytometry analysis. (B) Statistical analysis of result A. Data are represented as ± SEM (n = 3). *p < 0.05, **p < 0.01 vs T + B16F1. TEXT PRINTED IN THE PICTURE: (A) Navoximod: 8.1% (T + B16F1; 1.5 μM) | (A) 8g: 7.8% (T + B16F1; 18 μM) | (A) 5d: 2.1% (T + B16F1; 18 μM)

Another assay relates to CT26 colon carcinoma. The assay is described as follows: CT26 colon carcinoma xenograft in immunodeficient BALB/c nude mice. Type of assay: in vivo, mouse. On the procedure:
Eight-week-old male BALB/c nude mice, weighing 18–22 g, were supplied by Model Animal Research Centre of Nanjing University (Nanjing, China). 1 × 10^7/ml and 1 × 10^6 CT26 cells (in 0.1 ml PBS) were injected subcutaneously into the right flanks of mice. After CT26 xenograft BALB/c nude mouse model was established, all mice were randomly divided into three groups (n = 8). 5d (12.5 mg/kg) were administered (i.g) every day and 5-FU (25 mg/kg) awere administered (i.p) every three days. The following experimental procedures were similar to the described above.
For immunohistochemistry staining, the sections were deparaffinized, rehydrated, and washed in 1% PBS-Tween 20, and then treated with 2% hydrogen peroxide, blocked with 3% goat serum (Life Technology, 16210–064) and incubated for 2 h at room temperature with specific primary antibodies. Then the slides were incubated with streptavidin-HRP (Shanghai Gene Company, GK500705) for 40 min, then stained with DAB (Shanghai Gene Company, GK500705) substrate and counter-stained with haematoxylin. Images were acquired by microscopy (Olympus IX51).
Then, in order to clarify whether the in vivo antitumour efficacy of compound 5d was related to the mouse immune system, we repeated the above experiment in immunodeficient nude mice. Briefly, BALB/c nude mice bearing established CT26 colon carcinoma xenograft were treated with compound 5d and 5-FU for 10 days.
Figure 8. […] 1 × 10^6 CT26 cells were transplanted subcutaneously into the armpit of immunodeficient BALB/c nude mice. Three days after transplantation, mice were randomly allocated to vehicle control or treatment groups (n = 8). Drugs were administered on days 1–9. (A) Tumour volume and mouse body weight (B) were recorded. After sacrifice, solid tumours were separated and weighed (C, D). Data represent mean ± SEM, n = 8, *p < 0.05, **p < 0.01 vs vehicle.
To verify the above conclusions, we further performed H&E and IHC staining on the nude mouse CT26 tumour tissues. […] These findings further supported the above conclusions.

Setting [3] is: nude mouse CT26 tumour tissue, 12.5 mg/kg i.g.

T1 sequence (P14902 whole entry): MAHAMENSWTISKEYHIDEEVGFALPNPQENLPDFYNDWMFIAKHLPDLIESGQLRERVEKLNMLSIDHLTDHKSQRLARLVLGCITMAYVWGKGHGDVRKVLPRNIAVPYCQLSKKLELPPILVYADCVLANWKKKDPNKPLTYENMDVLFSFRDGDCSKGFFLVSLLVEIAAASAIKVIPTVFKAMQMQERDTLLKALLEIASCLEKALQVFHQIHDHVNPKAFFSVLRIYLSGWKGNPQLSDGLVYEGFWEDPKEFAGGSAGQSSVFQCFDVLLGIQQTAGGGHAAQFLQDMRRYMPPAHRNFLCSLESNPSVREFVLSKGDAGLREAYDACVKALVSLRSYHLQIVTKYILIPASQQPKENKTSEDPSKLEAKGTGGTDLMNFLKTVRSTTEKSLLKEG

For orientation: IC50 means the concentration that inhibits the measured activity by half. What is called inhibition is the relative decrease from the control value, in per cent. The low end stands for a weak effect, the high end for a strong effect. On to `C=CC(=O)Nc1ccc(S(=O)(=O)NCc2cccc(Cl)c2)cc1` [5d, N-(4-(N-(3-Chlorobenzyl)sulfamoyl)phenyl)acrylamide], for which it took 6.26 µM to reach half-maximal inhibition against IDO1 (HeLa cells, IFN-γ induced IDO1, kynurenine readout) (IC50). For the same molecule, testing at 30 µM against IDO1 (percentage inhibition at 30 μM, IFN-γ-treated HeLa cells, kynurenine in media) gave an inhibition of 91.1%. Further, the “expression of IDO1 protein” value in the assay with IDO1 protein expression (HeLa cells, 3, 10, 30 µM for 24 h or 48 h) is “did not affect IDO1 expression”. The “expression of IDO1 protein” value with IDO1 protein expression (HeLa cells, IFN-γ 100 ng/mL 24 h, then compounds at their IC50 concentrations for 24 h) is “did not influence IDO1 expression”. In assay [1], the T cell proliferation entry was “significant augmentation on T cell activity; also recorded: better enhancement of T cell proliferation than navoximod”. Further, the “FoxP3+ Treg cells (flow cytometry)” value in assay [2] is given as 2.1%. Also, in assay [2] (Con A, 48 h), the “FoxP3+ Treg cell differentiation (in words)” value is given as “significantly reduce FoxP3^+ Treg cell differentiation; also recorded: returned to the initial level”. The tumour growth entry with CT26 colon carcinoma (BALB/c nude mice, 12.5 mg/kg i.g every day, vs vehicle) is on record as “did not block tumour growth”. Also, in the assay with CT26 colon carcinoma (setting [3]), the “expression of PCNA” value is on record as “had no influence on the expression of PCNA” and the “tumour cell morphology (H&E staining)” value is on record as “remained intact morphology”.

The values are drawn from paper PMC7336998, “Discovery of secondary sulphonamides as IDO1 inhibitors with potent antitumour effects in vivo” (Journal of Enzyme Inhibition and Medicinal Chemistry, 2020).
